{
  "source": "patent US20260151310A1",
  "about": "“COSMETIC FOR HAIR GROWTH, COSMETIC RAW MATERIAL AND COSMETIC, AND METHOD FOR PRODUCING THE SAME” (Teika Pharmaceutical Co., Ltd., priority 2021, published 2026)",
  "origin": "cited, not measured here",
  "tested_on": "hair density and hair thickness",
  "conditions": "compared with positive control minoxidil; Non Patent Literature 1",
  "data": [
    {"smiles": "[O-][n+]1ccccc1[S-].[O-][n+]1ccccc1[S-].[Zn+2]", "note": "[pyrithione zinc]", "values": [
      {"measurement": "Effect on hair density and hair thickness", "result": "less than half the effect of a positive control minoxidil"}
    ]}
  ]
}
